The target in assay [1] is T1, Proteinase-activated receptor 2 (Rattus norvegicus, UniProt Q63645).
T1 sequence (Q63645 whole entry): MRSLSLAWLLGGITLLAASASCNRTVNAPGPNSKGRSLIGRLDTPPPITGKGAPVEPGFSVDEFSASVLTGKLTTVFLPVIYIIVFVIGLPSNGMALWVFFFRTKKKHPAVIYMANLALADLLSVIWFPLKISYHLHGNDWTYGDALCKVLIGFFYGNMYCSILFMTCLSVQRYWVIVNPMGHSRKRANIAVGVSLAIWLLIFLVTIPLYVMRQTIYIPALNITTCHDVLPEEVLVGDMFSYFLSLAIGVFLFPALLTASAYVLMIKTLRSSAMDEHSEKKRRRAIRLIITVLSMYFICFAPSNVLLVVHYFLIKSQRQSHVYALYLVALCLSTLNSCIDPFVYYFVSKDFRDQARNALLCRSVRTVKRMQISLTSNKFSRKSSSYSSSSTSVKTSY
Description: Antagonist activity at rat PAR2 expressed in rat KNRK cells assessed as inhibition of trypsin-induced receptor activation. Format: cell-based.

The target of assay [2] is T2, Proteinase-activated receptor 1 (Homo sapiens, UniProt P25116).
T2 sequence (P25116 whole entry): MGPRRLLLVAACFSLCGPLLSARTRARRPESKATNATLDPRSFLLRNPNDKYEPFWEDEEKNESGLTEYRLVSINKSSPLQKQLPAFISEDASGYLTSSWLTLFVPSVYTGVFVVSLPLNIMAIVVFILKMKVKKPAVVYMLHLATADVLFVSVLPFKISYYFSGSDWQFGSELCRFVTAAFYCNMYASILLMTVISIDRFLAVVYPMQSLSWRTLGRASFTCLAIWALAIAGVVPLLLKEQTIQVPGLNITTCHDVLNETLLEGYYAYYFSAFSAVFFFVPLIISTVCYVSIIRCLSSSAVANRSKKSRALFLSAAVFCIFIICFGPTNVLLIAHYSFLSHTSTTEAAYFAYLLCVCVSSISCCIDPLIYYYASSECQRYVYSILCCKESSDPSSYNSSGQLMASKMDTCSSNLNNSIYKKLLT
The assay can be described thus: Agonist activity at human PAR1 expressed in African green monkey COS7 cells assessed as stimulation of inositol triphosphate production. The format is functional, cell-based, COS-7.

Assay [3] deals with T3, Proteinase-activated receptor 2 (Homo sapiens, UniProt P55085).
T3 sequence (P55085 whole entry): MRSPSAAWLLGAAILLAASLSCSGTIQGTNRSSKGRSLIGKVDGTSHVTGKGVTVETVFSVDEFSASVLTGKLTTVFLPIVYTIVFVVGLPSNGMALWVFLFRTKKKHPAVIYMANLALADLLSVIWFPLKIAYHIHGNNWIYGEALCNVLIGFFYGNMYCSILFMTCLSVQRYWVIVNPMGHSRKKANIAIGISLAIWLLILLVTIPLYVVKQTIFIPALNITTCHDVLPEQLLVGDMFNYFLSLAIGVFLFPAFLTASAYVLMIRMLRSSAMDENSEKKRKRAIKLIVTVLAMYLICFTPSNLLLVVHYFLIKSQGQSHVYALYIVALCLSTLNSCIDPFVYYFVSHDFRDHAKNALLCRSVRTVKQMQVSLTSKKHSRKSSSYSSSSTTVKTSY
The assay can be described thus: Agonist activity at PAR2 in human 16HBE14o- cells assessed as increase in MAPK level. Format: cell-based.

The target of assay [4] is T3, Proteinase-activated receptor 2. The assay can be described thus: Agonist activity at PAR2 in human 16HBE14o- cells assessed as increase in intracellular calcium level. Format: functional, cell-based.
For assay [5] the target is unchanged. The assay can be described thus: Antagonist activity at PAR2 in human HCT15 cells assessed as inhibition of SLIGKV-NH2-induced intracellular calcium release. The format is functional, cell-based, HCT-15. (Calcium assays in cells follow changes in intracellular calcium, usually with a dye or a luminescent sensor.)
For assay [6] the target is unchanged. Description: Antagonist activity at human PAR2 expressed in human NCTC-2544 cells assessed as inhibition of SLIGKV-NH2-induced NFkappaB activation preincubated for 15 to 30 mins followed by SLIGKV-NH2 addition measured after 6 hrs by luciferase reporter gene assay. Format: cell-based. A general note: Reporter assays use an easily measured gene product as a stand-in for the process of interest.

Assay [7] has the same target. Description: Displacement of [3H]2-furoyl-LIGRL-NH2 from human PAR2 expressed in human NCTC-2544 cells by scintillation counting analysis. The format is cell-based.
The target is the same in assay [8]. The assay can be described thus: Antagonist activity at PAR2 in human HT-29 cells assessed as inhibition of 2f-LIGRLO-NH2-induced intracellular calcium release. Format: functional, cell-based.
The target is the same in assay [9]. Description: Antagonist activity at PAR2 in human HT-29 cells assessed as inhibition of trypsin-induced intracellular calcium release. Format: functional, cell-based.
Assay [10] has the same target. The assay can be described thus: Agonist activity at PAR2 in human HT-29 cells assessed as increase in intracellular calcium release. The format is functional, cell-based.
Assay [11] shares this target. The assay can be described thus: Displacement of [3H]-2-furoyl-LIGRL-NH2 from human PAR2 expressed in human NCTC-2544 cells after 60 mins by scintillation counting analysis. The format is cell-based. For orientation: Loss of bound radioactivity is the signal in a displacement assay; it reports binding, not function.
In assay [12] the target is Proteinase-activated receptor 2 (Homo sapiens) (UniProt P55085). The assay can be described thus: Antagonist activity at PAR2 in human SW620 cells assessed as inhibition of SLIGRL-NH2-induced intracellular calcium release at 6 uM relative to control. Details: scale not given: the % may be the effect or the level left. The note with it: SW-620. The format is functional, cell-based.

The target in assay [13] is T3, Proteinase-activated receptor 2. The assay can be described thus: Antagonist activity at PAR2 in human HT-29 cells assessed as inhibition of agonist-induced calcium mobilization. The format is functional, cell-based.
Assay [14] shares this target. Description: Antagonist activity at human PAR2 expressed in human A549 cells coexpressing TACR1 assessed as inhibition of substance P-induced IL-8 production by ELISA. The format is cell-based.
Assay [15] shares this target. The assay can be described thus: Antagonist activity at human PAR2 expressed in human A549 cells assessed as inhibition of 2f-LIGRLO-NH2-induced NFkappaB activation by luciferase reporter gene assay. The format is cell-based.
For assay [16] the target is unchanged. Description: Antagonist activity at PAR2 in human HaCaT cells assessed as inhibition of SLIGKV-NH2-induced intracellular calcium release. Format: functional, cell-based.
For assay [17] the target is unchanged. The assay can be described thus: Agonist activity at PAR2 (unknown origin) by cell-based assay.
Assay [18] has the same target. The assay can be described thus: Agonist activity at human PAR2 expressed in HEK293T cells assessed as increase in intracellular calcium level by bioluminescence assay. Format: functional, cell-based, HEK-293T.
Assay [19] has the same target. The assay can be described thus: Agonist activity at human PAR2 expressed in HEK293T cells assessed as stimulation of phosphatidylinositol hydrolysis after 45 mins by scintillation counting analysis. Format: functional, cell-based, HEK-293T.

Broadly, the IC50 is the point on the concentration scale where inhibition reaches its midpoint. For orientation: EC50 means the concentration giving half of the maximal effect. Usually Ki stands for a measure of affinity in units of concentration, obtained from inhibition or displacement.

Each structure is given as a SMILES string. *1 amine or outer side, *2 acyl side, *3 side chain or, on linkers, in order; H or OH if unused. Where a SMILES comes first, the peptide text is derived from it. [ ]: non-standard residue; d: D form. The star is where a group is joined. X1 = CCCCCCCCCCCCCCCC(=O)OCCOCCOCCNCCC[C@H](N[*:1])C(=O)[*:2]; Phe(4-NO2) = N[C@@H](Cc1ccc([N+](=O)[O-])cc1)C(=O)O; 4Thiazolecarbonyl(2-NH2) = Nc1nc(C(=O)*)cs1; Palmitoyl = CCCCCCCCCCCCCCCC(=O)*; Orn = NCCC[C@H](N)C(=O)O; 2Furoyl = O=C(c1ccco1)*

Consider `CC[C@H](C)[C@H](NC(=O)[C@H](CO)NC(=O)[C@@H](N)CC(C)C)C(=O)NCC(=O)N[C@@H](CCCNC(=N)N)C(=O)N[C@@H](CC(C)C)C(N)=O` (H-LSIGRL-NH2), for which the IC50 in assay [1] is 50 µM.
On to `CCCCCCCCCCCCCCCC(=O)N[C@@H](CCCN=C(N)N)C(=O)N[C@@H](CS)C(=O)N[C@@H](CC(C)C)C(=O)N[C@@H](CO)C(=O)N[C@@H](CO)C(=O)N[C@@H](CO)C(=O)N[C@@H](C)C(=O)N[C@H](C(=O)N[C@@H](C)C(=O)N[C@@H](CC(N)=O)C(=O)N[C@@H](CCCN=C(N)N)C(=O)N[C@@H](CO)C(=O)N[C@@H](CCCCN)C(=O)N[C@@H](CCCCN)C(=O)N[C@@H](CO)C(=O)N[C@@H](CCCN=C(N)N)C(=O)N[C@@H](CC(C)C)C(=O)N[C@@H](Cc1ccccc1)C(=O)O)C(C)C` (Palmitoyl-RCLSSSAVANRSKKSRLF-OH), for which the EC50 in assay [2] was 0.18 µM.
On to `CCCCCCCCCCCCCCCC(=O)OCCOCCOCCNCCC[C@H](NC(=O)[C@H](CC(C)C)NC(=O)[C@H](CCCNC(=N)N)NC(=O)CNC(=O)[C@@H](NC(=O)[C@H](CC(C)C)NC(=O)c1csc(N)n1)[C@@H](C)CC)C(N)=O` ({4Thiazolecarbonyl(2-NH2)}-LIGRL[X1]-NH2), for which the EC50 turned out to be 0.01 µM in assay [3] and 0.004 µM in assay [4].
In the case of `Cc1cccc(Cn2c(C)nc3cc(C(=O)N4CCCCC4)ccc32)c1`, in assay [5], the IC50 came out at 243 µM.
As to `NCCCC[C@H](NC(=O)CNC(=O)Nc1ccc2c(c1)c(CN1CCCC1)cn2Cc1c(Cl)cccc1Cl)C(=O)N[C@@H](Cc1ccccc1)C(=O)NC(c1ccccc1)c1ccccc1`, the IC50 in assay [6] was determined as 1.1 µM. In [7], this molecule had a Ki of 0.6 µM.
For `CC[C@H](C)[C@H](NC(=O)[C@H](CC1CCCCC1)NC(=O)c1ccno1)C(=O)NCc1ccccc1OC`, the IC50 in [8] amounted to 0.4 µM; in assay [9], 1.9 µM.
For the molecule `CC[C@H](C)[C@H](NC(=O)[C@H](Cc1ccc([N+](=O)[O-])cc1)NC(=O)[C@H](CCCN=C(N)N)NC(=O)CNC(=O)[C@@H](NC(=O)[C@H](CC(C)C)NC(=O)c1ccco1)[C@@H](C)CC)C(N)=O` (2Furoyl-LIGR[Phe(4-NO2)]I-NH2), the EC50 in assay [10] was 0.2 µM.
Take `CC[C@H](C)[C@H](NC(=O)[C@H](CC(C)C)NC(=O)c1ccco1)C(=O)NCC(=O)N[C@@H](CCCN=C(N)N)C(=O)N[C@@H](CC(C)C)C(=O)N[C@@H](CCCN)C(N)=O` (2Furoyl-LIGRL[Orn]-NH2): the IC50 in [11] turned out to be 0.1 µM. In assay [10], the half-maximal effective concentration (EC50) was determined as 0.2 µM.
`CC(C)C[C@H](NC(=O)[C@H](CC(C)C)NC(=O)[C@H](CO)NC(=O)[C@@H](N)Cc1ccccc1)C(=O)N[C@@H](CCCNC(=N)N)C(=O)N[C@@H](Cc1ccc(O)cc1)C(N)=O` (H-FSLLRY-NH2): the IC50 in assay [1] worked out at 50 µM.
Regarding `CCCCCCCCCCCCCCCC(=O)NCC(=O)N[C@@H](CC(=O)O)C(=O)N[C@@H](CCC(=O)O)C(=O)N[C@@H](CC(N)=O)C(=O)N[C@@H](CO)C(=O)N[C@@H](CCC(=O)O)C(=O)N[C@@H](CCCCN)C(=O)N[C@@H](CCCCN)C(=O)N[C@@H](CCCNC(=N)N)C(=O)N[C@@H](CCCCN)C(=O)N[C@@H](CCC(N)=O)C(=O)N[C@@H](C)C(=O)N[C@H](C(=O)N[C@@H](CCCCN)C(=O)O)[C@@H](C)CC` (Palmitoyl-GDENSEKKRKQAIK-OH), the Activity in assay [12] is 53%.
`CC[C@H](C)[C@H](NC(=O)[C@H](CC1CCCCC1)NC(=O)c1ccno1)C(=O)N1CCC2(CCc3ccccc32)CC1`: the IC50 in assay [13] amounted to 2 µM.
On to `CC(C)[C@]12O[C@H]1[C@@H]1O[C@]13[C@]1(O[C@H]1C[C@H]1C4=C(CC[C@@]13C)C(=O)OC4)[C@@H]2O` [TRIPTOLIDE], for which the IC50 in assay [14] stood at 0.023 µM; in [15], 0.014 µM.
Consider `COc1ccc(Br)c(C(=O)Nn2c(-c3ccc(F)cc3)nc3ccccc3c2=O)c1`, for which, in assay [5], the IC50 worked out at 34 µM.
Regarding `CC(C)C[C@H](NC(=O)[C@H](CC(C)C)NC(=O)[C@H](CO)NC(=O)[C@H](Cc1ccccc1)NC(=O)[C@H](CCCNC(=N)N)NC(=O)[C@@H](N)CCCNC(=N)N)C(=O)N[C@@H](CCCNC(=N)N)C(=O)N[C@@H](Cc1ccc(O)cc1)C(N)=O` (H-RRFSLLRY-NH2), the IC50 in assay [16] stood at 700 µM.
With `CC[C@H](C)[C@H](NC(=O)[C@H](CC(C)C)NC(=O)[C@@H](N)CO)C(=O)NCC(=O)N[C@@H](CCCNC(=N)N)C(=O)N[C@@H](CC(C)C)C(N)=O` (H-SLIGRL-NH2), the EC50 in assay [17] is 5 µM.
Consider `C/C(=N\NC(=O)[C@@H]1C(=O)NC[C@H]1c1ccccc1)c1cccc(Br)c1`, for which the EC50 in [18] and in [19] was 0.03 µM throughout.
Consider `CC[C@H](C)[C@H](NC(=O)[C@H](CC1CCCCC1)NC(=O)c1ccno1)C(=O)N1CCC2(C=Cc3ccccc32)CC1`, for which the IC50 in [13] turned out to be 1 µM.
